Measurements from patent publication US20010006656A1, “METHODS AND COMPOSITIONS FOR INHIBITING INFLAMMATION ASSOCIATED WITH PULMONARY DISEASE” (UNIVERSITY OF WASHINGTON, priority 1999, published 2001).

Legend:
[1] = test system: Jurkat cell adherence to FN; assay: Jurkat cell adherence to fibronectin (calcein-AM fluorescence); format: cell-based; conditions: for reversal of the inhibitory effect of lovastatin on PMA-stimulated Jurkat cell adhesion: co-incubated with lovastatin 2.5 days
Protocol: (§1) Briefly, Jurkat and U937 cells (American Type Culture Collection; Manassas Va.) were maintained in Earles Modified Eagles Medium (EMEM; M. A. Bioproducts, Walkersville, Md.) supplemented with 10% fetal bovine serum (FBS; Hyclone Laboratories Inc.; Logan Utah), 5 mM glutamine (Life Technologies Inc.; Gaithersburg Md.), 5 mM sodium pyruvate (Life Technologies), and […] (Life Technologies). Lovastatin (Calbiochem; San Diego Calif.) was converted to open acid form before use. […] The solution was heated to 50° C. for two hours. To this heated solution, 4.5 ml of an aqueous solution containing 81 mM NaH2PO4 and […] was added. The solution was heated to 40° C. for 30 min and the pH was adjusted to 7.3 with concentrated HCl. The final concentration was determined by UV spectroscopy (ε231 =21,490 M^−1cm^−1). The stock solution was frozen in small aliquots.
Cell adhesion of Jurkat cells and U937 cells to fibronectin (FN) or laminin (LN), respectively, was measured. Human FN (1.25 μg/ml)(Collaborative Research Inc.; Bedford Mass.) or human LN (100 μg/ml)(Life Technologies) was coated onto 96-well PRO-BIND assay plate (Falcon; Becton Dickinson; Lincoln Park N.J.) by incubating overnight at 4° C. The plate was then blocked with 3% bovine serum albumin (BSA) in phosphate buffered saline (PBS) at room temperature for one hour. Immediately before use, plates were washed three times with PBS.
(§2) After centrifugation for seven min at 300 xg, cells were resuspended in 1 ml phenol red-free medium and then labeled by incubation with 5 μl of the fluorescent dye calcein-AM (1 mg/ml in DMSO; Molecular Probes; Eugene Oreg.) for 30 min at room temperature in the dark. The cells were then washed twice with phenol red-free medium. After incubation with phorbol 12-myristate 13--acetate (PMA) (100 ng/ml) (Sigma; St. Louis Mo.), which is an activator of protein kinase C (PKC), or MAb 8A2 (2 μg/ml) for 30 min in control medium at room temperature, cells (˜1×10^5/well) were added to triplicate wells. After incubation for 30 min at 37° C., the total cells in the well were analyzed using a fluorescence plate reader (PerSeptive Biosystem; Framingham Mass.). Unbound cells were removed by washing the plate three times with phenol red-free medium, and the plate was then reanalyzed to determine fluorescence of bound cells. After subtraction of background, the percent adherence was calculated as the emission at 530 nm of bound cells divided by the […] of total cells.

[2] = test system: RhoA; assay: RhoA immunoblot (electrophoretic mobility as measure of isoprenylation) in Jurkat cells; format: cell-based
Protocol: Cell lysates were subjected to immunoblot analysis to assess RhoA electrophcoretic mobility as a measurement of isoprenylation. For RhoA blots, membranes were sequentially incubated with rabbit anti-RhoA antibody (Santa Cruz Biotechnology, Inc.) in TBST at room temperature for three hours, washed with TBST five times, incubated with goat anti-rabbit IgG (H+L) conjugated with horse radish peroxidase (HRP) (Bio-Rad Laboratories; Hercules Calif.) for one hour, and then washed with TBST five times. RhoA bands were visualized on x-ray film by incubation of membrane with chemiluminescence luminol reagent (Santa Cruz Biotechnology) at room temperature for one minute.

[3] = test system: ERK1; assay: Immunoblot for phosphorylated ERK1 in PMA-treated Jurkat cells; format: cell-based
[4] = test system: KC; assay: KC chemokine ELISA in lung lavage fluid of LPS-challenged mice; format: in vivo, murine
Protocol: (§3) Lavage fluids were used to measure cytokine production. The murine chemoattractant KC is a member of the CXC chemokine family of inflammatory cytokines and was measured by ELISA (R&D Systems; Minneapolis Minn.). The pro-inflammatory cytokine murine TNFα was also measured by ELISA (R&D Systems). The protocol for both assays was similar. Briefly, assay diluent was mixed with sample, which was the lavage fluid obtained as described in Example IV. The diluent was added to the appropriate capture plate and incubated for two hours. Plates were washed, incubated with conjugated anti-KC or anti-TNFα antibody for two hours, washed again, and then incubated with substrate for 30 min. A stop solution was then added, and the optical density determined by plate reader.

[5] = test system: TNFα; assay: TNFα ELISA in lung lavage fluid of LPS-challenged mice; format: in vivo, murine
Protocol: as §3

[6] = test system: U937 cell adherence to LN; assay: U937 cell adherence to laminin (calcein-AM fluorescence); format: cell-based
Protocol: as §1
Cell adhesion of Jurkat cells and U937 cells to fibronectin (FN) or laminin (LN), respectively, was measured. Human FN (1.25 μg/ml)(Collaborative Research Inc.; Bedford Mass.) or human LN (100 μg/ml)(Life Technologies) was coated onto 96-well PRO-BIND assay plate (Falcon; Becton Dickinson; Lincoln Park N.J.) by incubating overnight at 4° C. […]
as §2, with “The cells were then washed twice with phenol red-free medium. After incubation with phorbol 12-myristate 13--acetate (PMA) (100 ng/ml) (Sigma; St. Louis Mo.), which is an activator of protein kinase C (PKC), or MAb 8A2 (2 μg/ml) for 30 min in control medium at room temperature, cells (˜1×10^5/well) were added to triplicate wells.” left out

[7] = test system: neutrophil (PMN) and mononuclear cell migration into lung; assay: LPS-induced pulmonary inflammation in mice, cell counts in lung lavage fluid; format: in vivo
Protocol: (§4) Pulmonary inflammation was induced in mice using a technique similar to that reported by others (Szarka et al., J. Immunol. Methods 202:49-57 (1997)). Briefly, mice were anesthetized with halothane, then 2.5 μl/g was placed into their nares where it was rapidly taken into the trachea and deep into the lungs. […] Compounds were administered in a given amount per g of mouse body weight. In a second set of experiments, PMA (50 ng/μl final concentration; 5 mg/ml stock solution in dimethyl sulfoxide) was used in place of LPS. Mice were allowed to recover from anesthesia and returned to their cages with free access to food and water.
At either 24 (LPS and PMA) or 48 (LPS) hours, mice were returned to the laboratory and killed, their chest rapidly opened, then both lungs were lavaged with 0.5 ml of normal saline followed by a second lavage of another 0.5 ml of normal saline that was lavaged in and out four times. The lavage fluid was combined, total cell counts determined using a hemocytometer, cytospin preparations were then made, the cells stained using the commercial kit (DiffQuik; Baxter Healthcare Corp.; Miami Fla.), and differential cells counts completed. The total number of mononuclear cells and neutrophils in the lavage fluid was determined by counting 100 cells. The number of neutrophils or macrophages was determined by multiplying the percentages by the total cell count. Differences between groups were tested using the computer program Stat View (Abacus Concepts; Berkeley Calif.) by analysis of variances and post hoc testing using Fisher's protected least square differences. Differences were assumed significant for p<0.05. The lavage fluid remaining after cytospin and cell counts was subjected to centrifugation, and the supernatant collected and frozen at −20° C. for later cytokine analysis. […] Thus, lavage fluid was derived from regions where LPS was deposited as well as those regions receiving no challenge.
The LPS was given at the same time as the last dose of lovastatin by i.n. instillation as described above. […] Mice were returned to their cages with free access to food and water for 24 hours, then returned to the laboratory and killed. Lavage was performed and cell counts completed as described above.

[8] = test system: neutrophil (PMN) and mononuclear cell migration into lung; assay: PMA-induced pulmonary inflammation in mice, cell counts in lung lavage fluid; format: in vivo; conditions: i.n. lovastatin 7.0 μg/g with i.n. PMA; 24 hours
Protocol: as §4
At either 24 (LPS and PMA) or 48 (LPS) hours, mice were returned to the laboratory and killed, their chest rapidly opened, then both lungs were lavaged with 0.5 ml of normal saline followed by a second lavage of another 0.5 ml of normal saline that was lavaged in and out four times. The lavage fluid was combined, total cell counts determined using a hemocytometer, cytospin preparations were then made, the cells stained using the commercial kit (DiffQuik; Baxter Healthcare Corp.; Miami Fla.), and differential cells counts completed. The total number of mononuclear cells and neutrophils in the lavage fluid was determined by counting 100 cells. The number of neutrophils or macrophages was determined by multiplying the percentages by the total cell count. […]

[9] = Mouse hind limb ischemia and reperfusion, leg diameter; format: in vivo; conditions: 7 μg/g i.p. at beginning of 30 min ischemia; 24 hours; t-test
Protocol: Briefly, mice were anesthetized with halothane. A tourniquet was then placed on one hind limb to completely occlude blood flow and kept in place for 30 min. Body temperature was maintained at 37° C. with a heating blanket during the period of ischemia. Perfusion of the hind limb was re-established by removal of the tourniquet, and leg diameter was measured hourly for the next 6 hours and again at 24 hours.

Q: Which “reversal of the inhibitory effect of lovastatin on PMA-stimulated Jurkat cell adhesion” value [1] does the source give for `CC(C)=CCC/C(C)=C/CC/C(C)=C/CO` [FOH, trans, trans-farnesol] here?
A: not

Q: Which “concentration required to rescue Jurkat cell from the inhibitory effect of lovastatin” value ([1]; 10 μM lovastatin (FIG. 3B)) does the source give for `CC(C)=CCC/C(C)=C/CC/C(C)=C/CC/C(C)=C/CO` [GGOH, all trans-geranylgeraniol] here?
A: 2.5 µM

Q: What about the “reversal of the inhibitory effect of lovastatin on PMA-stimulated Jurkat cell adhesion” value [1] of the same molecule?
A: reversed

Q: What about the “RhoA migration on addition with lovastatin” value ([2]; GGOH 5 μM with lovastatin) of the same molecule?
A: more rapid migration of RhoA as seen in untreated cells

Q: For `COc1cccc(-c2cc(=O)c3ccccc3o2)c1N` [PD-98059], which “PMA-stimulated Jurkat cell adherence” value ([1]; 10 μM, 30 min pre-incubation before PMA) is on record?
A: did not inhibit

Q: What about the ERK1 phosphorylation ([3]; Jurkat cells pre-incubated 30 min with MEK-1 inhibitor before PMA) of the same molecule?
A: completely blocked

Q: For `CC[C@H](C)C(=O)O[C@H]1C[C@@H](C)C=C2C=C[C@H](C)[C@H](CC[C@@H]3C[C@@H](O)CC(=O)O3)[C@H]21` [lovastatin], which “effect on mAb 8A2-stimulated Jurkat cell adherence to FN” value ([1]; 8A2 2 μg/ml, 2.5 days pretreatment) is on record?
A: no significant effect

Q: What about the “inhibition of PMA-stimulated Jurkat cell adherence to FN” value ([1]; concentration greater than 5 μM, 2.5 days pretreatment) of the same molecule?
A: nearly completely inhibited

Q: What about the “concentration of KC chemokine in the lavage fluid” value ([4]; i.n. lovastatin, 24 hours after LPS, 7.0 μg/g group significantly different from control) of the same molecule?
A: reduced

Q: And the “KC concentration in the lavage fluid” value ([4]; i.n. lovastatin, 48 hours after LPS, four groups)?
A: not different

Q: And the “KC concentration in the lavage fluid” value ([4]; i.p. lovastatin pretreatment, 24 hours after i.n. LPS)?
A: significant reduction

Q: And the “TNF concentration in lavage fluid” value ([5]; i.n. lovastatin, 24 hours, all doses significant vs control)?
A: reduced in a dose-dependent manner

Q: And the “TNF concentration in lavage fluid, differences from control” value ([5]; i.n. lovastatin, 48 hours)?
A: not significant

Q: What about the TNF production ([5]; i.p. lovastatin, 24 hours after i.n. LPS, statistically significant) of the same molecule?
A: effective in preventing TNF production

Q: What about the “inhibition of mAb 8A2-stimulated adherence of U937 cells to LN” value ([6]; lovastatin pretreatment, 8A2 2 μg/ml) of the same molecule?
A: not

Q: And the “inhibition of PMA-stimulated adherence of U937 cells to LN” value ([6]; lovastatin pretreatment, PMA 100 ng/ml)?
A: inhibited

Q: And the “effect on stimulated adherence when added at the time of the adhesion assay instead of pretreating” value ([6]; no pretreatment)?
A: without effect

Q: And the “percent of PMNs in lavage fluid compared with the control group” value (“percent of PMNs in lavage fluid” below) ([7]; i.n. lovastatin 0.7 μg/g with i.n. LPS, 24 hours)?
A: 74%

Q: What about the “percent of PMNs in lavage fluid” value ([7]; i.n. lovastatin 0.7 μg/g with i.n. LPS, 48 hours) of the same molecule?
A: 75%

Q: And the “percent of PMNs in lavage fluid” value ([7]; i.n. lovastatin 1.4 μg/g with i.n. LPS, 24 hours)?
A: 28%

Q: And the “percent of PMNs in lavage fluid” value ([7]; i.n. lovastatin 1.4 μg/g with i.n. LPS, 48 hours)?
A: 32%

Q: And the “percent of PMNs in lavage fluid” value ([7]; i.n. lovastatin 7.0 μg/g with i.n. LPS, 24 hours)?
A: 4%

Q: And the “percent of PMNs in lavage fluid” value ([7]; i.n. lovastatin 7.0 μg/g with i.n. LPS, 48 hours)?
A: 5%

Q: What about the “total number of lavage mononuclear leukocytes” value ([7]; i.n. lovastatin with i.n. LPS, 24 hours) of the same molecule?
A: no effect

Q: What about the “number of mononuclear leukocytes in lavage fluid” value ([7]; i.n. lovastatin with i.n. LPS, 48 hours, differences not statistically significant) of the same molecule?
A: somewhat less

Q: And the “number of PMNs accumulating, percent of control group” value ([7]; i.p. lovastatin 7.0 μg/g daily x3, i.n. LPS, 24 hours, p<0.05)?
A: 30%

Q: And the “number of mononuclear leukocytes in lavage fluid” value ([7]; i.p. lovastatin 7.0 μg/g, i.n. LPS, 24 hours)?
A: not different between groups

Q: What about the “isoprenylation state of RhoA” value ([2]; 14 μM lovastatin) of the same molecule?
A: Most RhoA was in non-isoprenylated form

Q: And the “concentration at which geranylgeranylation of RhoA was significantly inhibited” value ([2]; Jurkat cells, 2.5 days)?
A: ≥ 0.5 µM

Q: And the “inhibition of PMN emigration” value [8]?
A: ~100%

Q: And the “mononuclear cell number, control vs lovastatin treatment” value [8]?
A: no difference

Q: What about the “PMA-stimulated MAPK (ERK1) phosphorylation” value ([3]; Jurkat cells, lovastatin 2.5 days, concentrations up to 40 μM, PMA 100 ng/ml 30 min) of the same molecule?
A: does not inhibit

Q: And the “leg diameter after ischemia and reperfusion, vehicle vs lovastatin” value [9]?
A: significantly larger diameter than the lovastatin treated leg
